Results: PMC6480460, “Derivatives of the β-Crinane Amaryllidaceae Alkaloid Haemanthamine as Multi-Target Directed Ligands for Alzheimer’s Disease” (Molecules, 2019)

Columns and labels:
A549 (lung carcinoma) = assay: WST-1 cytotoxicity assay, A549; assay type: cell-based; conditions: Homo sapiens, c = 10 μM, 48 h, percent of proliferation of untreated control cells, read-out: Cell proliferation, A549
From the text: (§1) Selected human tumor and non-tumor cell lines {Jurkat (acute T cell leukemia), MOLT-4 (acute lymphoblastic leukemia), A549 (lung carcinoma), HT-29 (colorectal adenocarcinoma), PANC-1 (pancreas epithelioid carcinoma), A2780 (ovarian carcinoma), HeLa (cervix adenocarcinoma), MCF-7 (breast adenocarcinoma), SAOS-2 (osteosarcoma) and MRC-5 (normal lung fibroblasts)} were purchased from either ATCC (Manassas, VA, USA) or Sigma-Aldrich (St. Louis, MO, USA) and cultured according to the provider’s culture method guidelines. […] Cells in the maximum range of either 10 passages for primary cell line (MRC-5), or in the maximum range of 20 passages for cancer cell lines (Jurkat, MOLT-4, A549, HT-29, PANC-1, A2780, HeLa, MCF-7 and SAOS-2) and in an exponential growth phase were used for this study.
(§2) The WST-1 (Roche, Mannheim, Germany) reagent was used to determine the cytostatic effect of the test compounds. WST-1 is designed for the spectrophotometric quantification of cell proliferation, growth, viability and chemosensitivity in cell populations using a 96-well-plate format (Sigma, St. Louis, MO, USA). The principle of WST-1 is based on photometric detection of the reduction of tetrazolium salt to a colored formazan product. The cells were seeded at a previously established optimal density (30,000 Jurkat, 25,000 MOLT-4, 500 A549, 1500 HT-29, 2000 PANC-1, 5000 A2780, 500 HeLa, 1500 MCF-7, 2000 SAOS-2 and 2000 MRC-5 cells/well) in 100 µL of culture medium, and adherent cells were allowed to reattach overnight. Thereafter, the cells were treated with 100 µL of either corresponding alkaloids or doxorubicin stock solutions to obtain the desired concentrations and incubated in 5% CO2 at 37 °C. WST-1 reagent diluted 4-fold with PBS (50 µL) was added 48 h after treatment. Absorbance was measured after 3 h incubation with WST-1 at 440 nm. The measurements were performed in a Tecan Infinite M200 spectrometer (Tecan Group, Männedorf, Switzerland). All experiments were performed at least three times with triplicate measurements at each drug concentration per experiment. The viability was quantified as described previously according to the following formula: (%) viability = (Asample − Ablank)/(Acontrol − Ablank) × 100, where A is the absorbance of the employed WST-1 formazan measured at 440 nm. The viability of the treated cells was normalized to the viability of cells treated with 0.1% DMSO (Sigma-Aldrich) as a vehicle control.

[1] = tested on: Jurkat (acute T cell leukemia); assay: WST-1 cytotoxicity assay, Jurkat; assay type: cell-based; conditions: Homo sapiens, c = 10 μM, 48 h, percent of proliferation of untreated control cells
From the text: as §1, §2

[2] = tested on: MCF-7 (breast adenocarcinoma); assay: WST-1 cytotoxicity assay, MCF-7; assay type: cell-based; conditions: Homo sapiens, MCF7; c = 10 μM, 48 h, percent of proliferation of untreated control cells; read-out: Cell proliferation, MCF-7
From the text: as §1, §2

[3] = tested on: HT-29 (colorectal adenocarcinoma); assay: WST-1 cytotoxicity assay, HT-29; assay type: cell-based; conditions: Homo sapiens, c = 10 μM, 48 h, percent of proliferation of untreated control cells, read-out: Cell proliferation, HT-29
From the text: as §1, §2

[4] = tested on: HeLa (cervix adenocarcinoma); assay: WST-1 cytotoxicity assay, HeLa; assay type: cell-based; conditions: Homo sapiens, c = 10 μM, 48 h, percent of proliferation of untreated control cells, read-out: Cell proliferation, HeLa
From the text: as §1, §2

SAOS-2 (osteosarcoma) = assay: WST-1 cytotoxicity assay, SAOS-2; assay type: cell-based; conditions: Homo sapiens, c = 10 μM, 48 h, percent of proliferation of untreated control cells, read-out: Cell proliferation, SAOS-2
From the text: as §1, §2

[5] = tested on: PANC-1 (pancreas epithelioid carcinoma); assay: WST-1 cytotoxicity assay, PANC-1; assay type: cell-based; conditions: Homo sapiens, c = 10 μM, 48 h, percent of proliferation of untreated control cells, read-out: Cell proliferation, PANC-1
From the text: as §1, §2

[6] = tested on: MRC-5 (normal lung fibroblasts); assay: WST-1 cytotoxicity assay, MRC-5; assay type: cell-based; conditions: Homo sapiens, MRC5; c = 10 μM, 48 h, percent of proliferation of untreated control cells; read-out: Cell proliferation, MRC-5
From the text: as §1, §2

[7] = tested on: A2780 (ovarian carcinoma); assay: WST-1 cytotoxicity assay, A2780; assay type: cell-based; conditions: Homo sapiens, c = 10 μM, 48 h, percent of proliferation of untreated control cells, read-out: Cell proliferation, A2780
From the text: as §1, §2

[8] = tested on: MOLT-4 (acute lymphoblastic leukemia); assay: WST-1 cytotoxicity assay, MOLT-4; assay type: cell-based; conditions: Homo sapiens, c = 10 μM, 48 h, percent of proliferation of untreated control cells, read-out: Cell proliferation, MOLT-4
From the text: as §1, §2

hBuChE = hBuChE (Homo sapiens, UniProt P06276); assay: biochemical; assay type: biochemical; conditions: mean ± SEM of three independent measurements, each in triplicate; read-out: hBuChE IC50
Chain of hBuChE (P06276 29-602): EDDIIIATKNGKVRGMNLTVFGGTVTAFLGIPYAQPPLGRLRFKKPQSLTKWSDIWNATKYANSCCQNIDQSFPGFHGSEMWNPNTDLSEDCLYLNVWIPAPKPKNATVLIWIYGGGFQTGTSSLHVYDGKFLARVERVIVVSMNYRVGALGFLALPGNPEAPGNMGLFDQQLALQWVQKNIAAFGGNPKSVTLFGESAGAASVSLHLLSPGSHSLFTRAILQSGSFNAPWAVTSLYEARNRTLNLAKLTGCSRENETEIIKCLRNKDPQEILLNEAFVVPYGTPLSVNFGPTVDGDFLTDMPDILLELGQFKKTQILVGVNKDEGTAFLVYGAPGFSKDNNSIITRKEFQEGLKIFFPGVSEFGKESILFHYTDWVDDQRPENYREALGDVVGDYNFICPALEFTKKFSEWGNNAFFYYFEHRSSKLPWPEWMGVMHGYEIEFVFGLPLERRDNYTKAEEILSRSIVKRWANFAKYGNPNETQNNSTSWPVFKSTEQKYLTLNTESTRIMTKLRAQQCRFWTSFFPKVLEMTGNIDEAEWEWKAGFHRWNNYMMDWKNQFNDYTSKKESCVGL
Experimental: (§3) The hAChE and hBuChE activities were determined using a modified method of Ellman with acetylthiocholine iodide (ATChI) and butyrylthiocholine iodide (BuTChI) as substrates, respectively.

hAChE = hAChE (Homo sapiens, UniProt P22303); assay: biochemical; assay type: biochemical; conditions: for IC50: mean ± SEM of three independent measurements, each in triplicate; for SI for hAChE: selectivity index, ratio hBuChE IC50/hAChE IC50
Chain of hAChE (P22303 32-614): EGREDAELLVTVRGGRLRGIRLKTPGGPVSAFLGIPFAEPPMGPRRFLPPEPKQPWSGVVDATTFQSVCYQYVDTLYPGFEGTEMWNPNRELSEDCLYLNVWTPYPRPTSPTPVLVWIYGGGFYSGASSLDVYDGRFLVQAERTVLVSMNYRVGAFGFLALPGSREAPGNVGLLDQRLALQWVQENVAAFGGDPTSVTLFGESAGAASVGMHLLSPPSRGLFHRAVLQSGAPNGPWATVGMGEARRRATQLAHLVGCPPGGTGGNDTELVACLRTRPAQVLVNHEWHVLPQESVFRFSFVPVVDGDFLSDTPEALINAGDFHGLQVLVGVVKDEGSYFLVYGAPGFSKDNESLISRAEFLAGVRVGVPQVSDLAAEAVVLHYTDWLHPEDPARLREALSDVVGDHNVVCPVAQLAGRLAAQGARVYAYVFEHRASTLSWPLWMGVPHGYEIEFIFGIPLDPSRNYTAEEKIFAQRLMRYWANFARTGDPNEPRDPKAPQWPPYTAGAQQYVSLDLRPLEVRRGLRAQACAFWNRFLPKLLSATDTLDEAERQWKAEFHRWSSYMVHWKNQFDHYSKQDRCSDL
Experimental: as §3

in vitro = conditions: for PAMPA-BBB prediction of penetration in the CNS: class from Pe
Experimental: The PAMPA assay was performed as previously described.

GSK-3β = GSK-3β (Homo sapiens, UniProt P49841); assay: GSK-3β assay (Kinase-Glo Kit); assay type: biochemical; conditions: tested at 10 µM compound concentration; read-out: GSK-3β (% inhib.)
Chain of GSK-3β (P49841 whole entry): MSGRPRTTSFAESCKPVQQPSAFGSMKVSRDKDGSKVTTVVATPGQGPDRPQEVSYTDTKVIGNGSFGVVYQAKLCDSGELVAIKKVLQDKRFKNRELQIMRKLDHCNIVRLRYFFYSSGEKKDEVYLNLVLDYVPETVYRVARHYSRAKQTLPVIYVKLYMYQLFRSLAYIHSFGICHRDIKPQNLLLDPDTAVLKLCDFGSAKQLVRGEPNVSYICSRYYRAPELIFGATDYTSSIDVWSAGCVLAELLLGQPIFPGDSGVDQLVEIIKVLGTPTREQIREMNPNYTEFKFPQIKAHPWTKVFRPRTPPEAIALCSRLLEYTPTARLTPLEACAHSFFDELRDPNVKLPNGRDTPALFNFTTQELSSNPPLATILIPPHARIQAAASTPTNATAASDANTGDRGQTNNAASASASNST
Experimental: The GSK-3β assay was performed by using Kinase-Glo Kit obtained from Promega (Promega Biotech Iberica, SL, Madrid, Spain) as described previously.

SMILES | activity at 10 µM (A549 (lung carcinoma)) [%] | activity at 10 µM [1] [%] | activity at 10 µM [2] [%] | activity at 10 µM [3] [%] | activity at 10 µM [4] [%] | activity at 10 µM (SAOS-2 (osteosarcoma)) [%] | activity at 10 µM [5] [%] | activity at 10 µM [6] [%] | activity at 10 µM [7] [%] | viability at 10 µM [8] [%] | IC50 (hBuChE) [µM] | IC50 (hAChE) [µM] | SI for hAChE (hAChE) | Papp (in vitro; pig, PAMPA, PAMPA-BBB Permeability (Pe)) [nm/s] | PAMPA-BBB prediction of penetration in the CNS (in vitro) | PAMPA-BBB prediction of penetration in the CNS (in vitro; listed as 18g) | inhibition at 10 µM (GSK-3β) [%]
COC1C=CC23c4cc5c(cc4CN(CC2OC(=O)c2cccc(Br)c2)C3C1)OCO5 (stereo not drawn) [Compound 1i, 11-O-(3-Bromobenzoyl)haemanthamine] | 122 ± 5 | 133 ± 10 | 105 ± 4 | 120 ± 4 | 93 ± 5 | 97 ± 10 | 108 ± 2 | 105 ± 3 | 162 ± 9 | 115 ± 15 | 129 ± 25 | 112 ± 21 | 1.1 | – | – | – | –
CN(C)CCCN1c2ccccc2Sc2ccccc21 [Promazine, reference compound] | – | – | – | – | – | – | – | – | – | – | – | – | – | 86 | – | – | –
COc1cccc(C(=O)OC2CN3Cc4cc5c(cc4C24C=CC(OC)CC34)OCO5)c1 (stereo not drawn) [Compound 1k, 11-O-(3-Methoxybenzoyl)haemanthamine] | 102 ± 5 | 83 ± 1 | 100 ± 2 | 93 ± 3 | 84 ± 12 | 89 ± 15 | 88 ± 5 | 92 ± 1 | 108 ± 7 | 94 ± 18 | 75.5 ± 12.5 | 180 ± 17 | 0.4 | – | – | – | –
COc1cccc2c1C(=O)c1c(O)c3c(c(O)c1C2=O)C[C@@](O)(C(=O)CO)C[C@@H]3O[C@H]1C[C@H](N)[C@H](O)[C@H](C)O1 [DOX, Doxorubicin, reference compound] | 66 ± 16 | 0 | 41 ± 7 | 77 ± 12 | 7 ± 10 | 73 ± 8 | 59 ± 9 | 40 ± 4 | 5 ± 1 | 0 | – | – | – | – | – | – | –
CCCC(=O)OC1CN2Cc3cc4c(cc3C13C=CC(OC)CC23)OCO4 (stereo not drawn) [Compound 1f, 11-O-Butanoylhaemanthamine] | 106 ± 12 | 90 ± 12 | 96 ± 13 | 101 ± 3 | 88 ± 3 | 104 ± 7 | 99 ± 6 | 87 ± 14 | 104 ± 8 | 101 ± 18 | 140 ± 21 | > 500 | < 0.3 | – | – | – | –
COC1C=CC23c4cc5c(cc4CN(CC2OC(=O)c2cccc(Cl)c2)C3C1)OCO5 (stereo not drawn) [Compound 1h, 11-O-(3-Chlorobenzoyl)haemanthamine] | – | – | – | – | – | – | – | – | – | – | 80.2 ± 10.2 | 85.1 ± 6.4 | 0.9 | – | – | – | –
CCC(=O)OC1CN2Cc3cc4c(cc3C13C=CC(OC)CC23)OCO4 (stereo not drawn) [Compound 1b, 11-O-Propionylhaemanthamine] | 84 ± 3 | 104 ± 3 | 85 ± 7 | 79 ± 15 | 69 ± 11 | 96 ± 16 | 70 ± 13 | 102 ± 13 | 104 ± 3 | 97 ± 8 | 437 ± 38 | > 500 | < 0.9 | – | – | – | –
COC1C=CC23c4cc5c(cc4CN(CC2OC(=O)C(C)C)C3C1)OCO5 (stereo not drawn) [Compound 1c, 11-O-Isobutanoylhaemanthamine] | 84 ± 3 | 110 ± 3 | 103 ± 7 | 82 ± 17 | 74 ± 8 | 85 ± 15 | 85 ± 13 | 95 ± 7 | 123 ± 9 | 99 ± 8 | 203 ± 8 | > 500 | < 0.4 | – | – | – | –
COC1C=CC23c4cc5c(cc4CN(CC2OC(C)=O)C3C1)OCO5 (stereo not drawn) [Compound 1a, 11-O-Acetylhaemanthamine] | 95 ± 9 | 100 ± 13 | 97 ± 19 | 97 ± 10 | 83 ± 6 | 88 ± 6 | 114 ± 4 | 113 ± 12 | 107 ± 17 | 106 ± 9 | > 500 | > 500 | – | – | – | – | –
CCCCC(=O)OC1CN2Cc3cc4c(cc3C13C=CC(OC)CC23)OCO4 (stereo not drawn) [Compound 1d, 11-O-Pentanoylhaemanthamine] | 99 ± 7 | 92 ± 1 | 93 ± 5 | 94 ± 4 | 93 ± 6 | 88 ± 6 | 88 ± 3 | 89 ± 3 | 99 ± 2 | 96 ± 1 | > 500 | > 500 | – | – | – | – | –
CCCCCC(=O)OC1CN2Cc3cc4c(cc3C13C=CC(OC)CC23)OCO4 (stereo not drawn) [Compound 1e, 11-O-Hexanoylhaemanthamine] | 105 ± 9 | 100 ± 7 | 95 ± 4 | 100 ± 3 | 98 ± 3 | 96 ± 8 | 96 ± 4 | 96 ± 4 | 106 ± 5 | 97 ± 3 | 273 ± 18 | > 500 | < 0.5 | – | – | – | –
COC1C=CC23c4cc5c(cc4CN(CC2OC(=O)c2ccccc2)C3C1)OCO5 (stereo not drawn) [Compound 1g, 11-O-Benzoylhaemanthamine] | 98 ± 2 | 83 ± 11 | 108 ± 10 | 110 ± 17 | 98 ± 2 | 104 ± 9 | 100 ± 10 | 101 ± 5 | 120 ± 10 | 110 ± 19 | 5.8 ± 0.3 | 294 ± 25 | 0.02 | – | CNS+ (CNS(+): high BBB permeation predicted with Pe (10^−6 cm.s^−1) > 4.0) | CNS + | 11 ± 2
